Experimental data reported in patent US8952024B2, “Herbicidal pyrimidone derivatives” (E I du Pont de Nemours and Company, priority 2009, dated 2015).

Columns and labels:
Test in all cases: Test B pre-/postemergence plant response
Type in all cases: in vivo
Details in all cases: Postemergence
[1] = tested on: large crabgrass (Digitaria sanguinalis)
In short: (§1)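 Pre-em in loam/sand; post-em at 1–4 leaf (2–18 cm) in peat mix. Solvent + surfactant formulation. Greenhouse 13–15 d; visual % control vs untreated, 0–100.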

[2] = tested on: velvetleaf (Abutilon theophrasti)
In short: as §1

[3] = tested on: goosegrass (Eleusine indica)
In short: as §1

[4] = tested on: downy bromegrass (Bromus tectorum)
In short: as §1

[5] = tested on: woolly cupgrass (Eriochloa villosa)
In short: as §1

[6] = tested on: yellow nutsedge (Cyperus esculentus)
In short: as §1

[7] = tested on: johnsongrass (Sorghum halepense)
In short: as §1

[8] = tested on: Italian ryegrass (Lolium multiflorum)
In short: as §1

[9] = tested on: green foxtail (Setaria viridis)
In short: as §1

[10] = tested on: giant foxtail (Setaria faberii)
In short: as §1

[11] = tested on: corn (Zea mays)
In short: as §1

[12] = tested on: Surinam grass (Brachiaria decumbens)
In short: as §1

[13] = tested on: ragweed (common ragweed, Ambrosia elatior)
In short: as §1

[14] = tested on: lambsquarters (Chenopodium album)
In short: as §1

[15] = tested on: bermudagrass (Cynodon dactylon)
In short: as §1

[16] = tested on: kochia (Kochia scoparia)
In short: as §1

[17] = tested on: blackgrass (Alopecurus myosuroides)
In short: as §1

[18] = 31 g ai/ha, 0 to 100 scale (0 no effect, 100 complete control)
[19] = 125 g ai/ha, scale 0 to 100 (0 no effect, 100 complete control)
[20] = 250 g ai/ha, scale 0 to 100 (0 no effect, 100 complete control), 13 to 15 days
[21] = 62 g ai/ha, scale 0 to 100 (0 no effect, 100 complete control)
[22] = 125 g ai/ha, scale 0 (no effect) to 100 (complete control), 13 to 15 days

SMILES: CCn1c(-c2cccc(F)c2)ncc(C(=O)C2=C(O)C3CCC(C3)C2=O)c1=O (stereo not shown) [Compound 236]
- Plant response rating, Crabgrass, Large [1, 18]: 75
- Plant response rating, Crabgrass, Large [1, 19]: 98
- Plant response rating, Crabgrass, Large [1, 20]: 100
- Plant response rating, Crabgrass, Large [1, 21]: 90
- Plant response rating, Velvetleaf [2, 18]: 98
- Plant response rating, Velvetleaf [2, 20]: 100
- Plant response rating, Velvetleaf [2, 21]: 100
- Plant response rating, Goosegrass [3, 18]: 80
- Plant response rating, Goosegrass [3, 19]: 95
- Plant response rating, Goosegrass [3, 20]: 100
- Plant response rating, Goosegrass [3, 21]: 90
- Plant response rating, Bromegrass, Downy [4, 18]: 0
- Plant response rating, Bromegrass, Downy [4, 19]: 10
- Plant response rating, Bromegrass, Downy [4, 20]: 25
- Plant response rating, Bromegrass, Downy [4, 21]: 5
- Plant response rating, Cupgrass, Woolly [5, 18]: 70
- Plant response rating, Cupgrass, Woolly [5, 19]: 95
- Plant response rating, Cupgrass, Woolly [5, 21]: 85
- Plant response rating, Nutsedge, Yellow [6, 18]: 0
- Plant response rating, Nutsedge, Yellow [6, 19]: 15
- Plant response rating, Nutsedge, Yellow [6, 20]: 65
- Plant response rating, Nutsedge, Yellow [6, 21]: 15
- Plant response rating, Johnsongrass [7, 18]: 0
- Plant response rating, Johnsongrass [7, 19]: 20
- Plant response rating, Johnsongrass [7, 20]: 55
- Plant response rating, Johnsongrass [7, 21]: 15
- Plant response rating, Ryegrass, Italian [8, 18]: 0
- Plant response rating, Ryegrass, Italian [8, 20]: 5
- Plant response rating, Ryegrass, Italian [8, 21]: 0
- Plant response rating, Foxtail, Green [9, 18]: 80
- Plant response rating, Foxtail, Green [9, 19]: 98
- Plant response rating, Foxtail, Green [9, 20]: 98
- Plant response rating, Foxtail, Green [9, 21]: 95
- Plant response rating, Foxtail, Giant [10, 18]: 75
- Plant response rating, Foxtail, Giant [10, 19]: 95
- Plant response rating, Foxtail, Giant [10, 20]: 98
- Plant response rating, Foxtail, Giant [10, 21]: 80
- Plant response rating, Corn [11, 18]: 15
- Plant response rating, Corn [11, 19]: 70
- Plant response rating, Corn [11, 21]: 60
- Plant response rating, Surinam Grass [12, 18]: 60
- Plant response rating, Surinam Grass [12, 21]: 70
- Plant response rating, Ragweed [13, 18]: 80
- Plant response rating, Ragweed [13, 20]: 98
- Plant response rating, Ragweed [13, 21]: 95
- Plant response rating, Lambsquarters [14, 18]: 98
- Plant response rating, Lambsquarters [14, 19]: 100
- Plant response rating, Lambsquarters [14, 20]: 100
- Plant response rating, Lambsquarters [14, 21]: 100
- Plant response rating, Bermudagrass [15, 18]: 95
- Plant response rating, Bermudagrass [15, 19]: 98
- Plant response rating, Bermudagrass [15, 21]: 98
- Plant response rating, Kochia [16, 18]: 80
- Plant response rating, Kochia [16, 19]: 100
- Plant response rating, Kochia [16, 20]: 100
- Plant response rating, Kochia [16, 21]: 98
- Plant response rating, Blackgrass [17, 18]: 0
- Plant response rating, Blackgrass [17, 19]: 30
- Plant response rating, Blackgrass [17, 20]: 40
- Plant response rating, Blackgrass [17, 21]: 5

SMILES: CCCCn1c(-c2ccccc2)ncc(C(=O)C2=C(O)C3CCC(C3)C2=O)c1=O (stereo not shown) [Compound 240]
- Plant response rating, Crabgrass, Large [1, 18]: 80
- Plant response rating, Crabgrass, Large [1, 22]: 100
- Plant response rating, Crabgrass, Large [1, 20]: 100
- Plant response rating, Crabgrass, Large [1, 21]: 98
- Plant response rating, Velvetleaf [2, 18]: 75
- Plant response rating, Velvetleaf [2, 22]: 85
- Plant response rating, Velvetleaf [2, 20]: 100
- Plant response rating, Velvetleaf [2, 21]: 85
- Plant response rating, Goosegrass [3, 18]: 95
- Plant response rating, Goosegrass [3, 22]: 98
- Plant response rating, Goosegrass [3, 20]: 98
- Plant response rating, Goosegrass [3, 21]: 98
- Plant response rating, Bromegrass, Downy [4, 18]: 10
- Plant response rating, Bromegrass, Downy [4, 22]: 25
- Plant response rating, Bromegrass, Downy [4, 20]: 50
- Plant response rating, Bromegrass, Downy [4, 21]: 20
- Plant response rating, Cupgrass, Woolly [5, 18]: 98
- Plant response rating, Cupgrass, Woolly [5, 22]: 100
- Plant response rating, Cupgrass, Woolly [5, 20]: 100
- Plant response rating, Cupgrass, Woolly [5, 21]: 100
- Plant response rating, Nutsedge, Yellow [6, 18]: 10
- Plant response rating, Nutsedge, Yellow [6, 22]: 20
- Plant response rating, Nutsedge, Yellow [6, 20]: 45
- Plant response rating, Nutsedge, Yellow [6, 21]: 15
- Plant response rating, Johnsongrass [7, 22]: 100
- Plant response rating, Johnsongrass [7, 20]: 100
- Plant response rating, Johnsongrass [7, 21]: 100
- Plant response rating, Ryegrass, Italian [8, 18]: 10
- Plant response rating, Ryegrass, Italian [8, 22]: 40
- Plant response rating, Ryegrass, Italian [8, 20]: 40
- Plant response rating, Ryegrass, Italian [8, 21]: 15
- Plant response rating, Foxtail, Green [9, 18]: 90
- Plant response rating, Foxtail, Green [9, 22]: 95
- Plant response rating, Foxtail, Green [9, 20]: 98
- Plant response rating, Foxtail, Green [9, 21]: 90
- Plant response rating, Foxtail, Giant [10, 18]: 100
- Plant response rating, Foxtail, Giant [10, 22]: 100
- Plant response rating, Foxtail, Giant [10, 20]: 100
- Plant response rating, Foxtail, Giant [10, 21]: 100
- Plant response rating, Corn [11, 18]: 90
- Plant response rating, Corn [11, 22]: 100
- Plant response rating, Corn [11, 20]: 100
- Plant response rating, Corn [11, 21]: 95
- Plant response rating, Surinam Grass [12, 18]: 95
- Plant response rating, Surinam Grass [12, 22]: 100
- Plant response rating, Surinam Grass [12, 20]: 100
- Plant response rating, Surinam Grass [12, 21]: 98
- Plant response rating, Ragweed [13, 18]: 98
- Plant response rating, Ragweed [13, 22]: 100
- Plant response rating, Ragweed [13, 20]: 100
- Plant response rating, Ragweed [13, 21]: 98
- Plant response rating, Lambsquarters [14, 18]: 98
- Plant response rating, Lambsquarters [14, 22]: 100
- Plant response rating, Lambsquarters [14, 20]: 100
- Plant response rating, Lambsquarters [14, 21]: 100
- Plant response rating, Bermudagrass [15, 18]: 98
- Plant response rating, Bermudagrass [15, 22]: 100
- Plant response rating, Bermudagrass [15, 20]: 100
- Plant response rating, Bermudagrass [15, 21]: 100
- Plant response rating, Kochia [16, 18]: 80
- Plant response rating, Kochia [16, 22]: 100
- Plant response rating, Kochia [16, 20]: 100
- Plant response rating, Kochia [16, 21]: 98
- Plant response rating, Blackgrass [17, 18]: 40
- Plant response rating, Blackgrass [17, 22]: 65
- Plant response rating, Blackgrass [17, 20]: 65
- Plant response rating, Blackgrass [17, 21]: 50
